From the NIST ThermoML archive (doi:10.1016/j.jct.2004.07.006)
Numbers after ± are expanded uncertainties.

Test: mn = molality of the nth substance listed, in mol/kg
Conditions: 298.15 K, 101.33 kPa, Liquid

NCC(=O)O [2-aminoacetic acid] + O
viscosity (m1 = 0.4993): 0.9561 ± 0.031 mPa·s | viscosity (m1 = 0.7501): 0.9914 ± 0.032 mPa·s | viscosity (m1 = 1): 1.028 ± 0.033 mPa·s | viscosity (m1 = 1.499): 1.106 ± 0.035 mPa·s | viscosity (m1 = 1.5): 1.106 ± 0.035 mPa·s | viscosity (m1 = 2): 1.189 ± 0.037 mPa·s

C[C@H](N)C(=O)O [(S)-2-aminopropanoic acid] + O
viscosity (m1 = 0.1002): 0.9179 ± 0.03 mPa·s | viscosity (m1 = 0.4992): 1.017 ± 0.032 mPa·s | viscosity (m1 = 0.7503): 1.08 ± 0.034 mPa·s | viscosity (m1 = 0.9992): 1.152 ± 0.036 mPa·s

NCC(=O)NCC(=O)O [glycylglycine] + O
viscosity (m1 = 0.0995): 0.9265 ± 0.03 mPa·s | viscosity (m1 = 0.0998): 0.9265 ± 0.03 mPa·s | viscosity (m1 = 0.5004): 1.062 ± 0.034 mPa·s | viscosity (m1 = 0.7502): 1.145 ± 0.036 mPa·s
